Measured values reported in ChEMBL document CHEMBL1201861, “Genomics of Drug Sensitity in Cancer screening data, Wellcome Trust Sanger Institute”.

Key:
Assay in all cases: cells
Format in all cases: functional, cell-based, Homo sapiens
[1] = tested on: COLO-829; conditions: Homo sapiens, COLO-829
Description: SANGER: Inhibition of human COLO-829 cell growth in a cell viability assay.

[2] = tested on: D-247MG; conditions: Homo sapiens, D-247MG
Description: SANGER: Inhibition of human D-247MG cell growth in a cell viability assay.

[3] = tested on: JVM-2; conditions: Homo sapiens, JVM-2;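 further: growth inhibition of JVM-2 cells determined by a cell viability assay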
Description: SANGER: Inhibition of human JVM-2 cell growth in a cell viability assay.

[4] = tested on: MMAC-SF; conditions: Homo sapiens, MMAC-SF;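 further: growth inhibition of human MMAC-SF cells, read out with a cell viability assay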
Description: SANGER: Inhibition of human MMAC-SF cell growth in a cell viability assay.

[5] = tested on: LS-123; conditions: Homo sapiens, LS-123
Description: SANGER: Inhibition of human LS-123 cell growth in a cell viability assay.

[6] = tested on: ETK-1; conditions: Homo sapiens, ETK-1;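 further: growth inhibition of human ETK-1 cells, read out with a cell viability assay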
Description: SANGER: Inhibition of human ETK-1 cell growth in a cell viability assay.

[7] = tested on: CTB-1; conditions: Homo sapiens, CTB-1
Description: SANGER: Inhibition of human CTB-1 cell growth in a cell viability assay.

[8] = tested on: NB6; conditions: Homo sapiens, NB6;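 further: growth inhibition of NB6 cells, read out by a cell viability assay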
Description: SANGER: Inhibition of human NB6 cell growth in a cell viability assay.

[9] = tested on: BV-173; conditions: Homo sapiens, BV-173
Description: SANGER: Inhibition of human BV-173 cell growth in a cell viability assay.

[10] = tested on: ES4; conditions: Homo sapiens, ES4;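 further: growth inhibition of human ES4 cells, read out by a cell viability assay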
Description: SANGER: Inhibition of human ES4 cell growth in a cell viability assay.

[11] = tested on: MZ1-PC; conditions: Homo sapiens, MZ1-PC;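 further: cell viability assay measuring growth inhibition of human MZ1-PC cells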
Description: SANGER: Inhibition of human MZ1-PC cell growth in a cell viability assay.

[12] = tested on: RPMI-8866; conditions: Homo sapiens, RPMI-8866
Description: SANGER: Inhibition of human RPMI-8866 cell growth in a cell viability assay.

[13] = tested on: SF-268; conditions: Homo sapiens, SF-268;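 further: growth inhibition of SF-268 cells determined with a cell viability assay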
Description: SANGER: Inhibition of human SF268 cell growth in a cell viability assay.

[14] = tested on: ES1; conditions: Homo sapiens, ES1;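 further: growth inhibition of ES1 cells, read out with a cell viability assay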
Description: SANGER: Inhibition of human ES1 cell growth in a cell viability assay.

[15] = tested on: SK-MEL-1; conditions: Homo sapiens, SK-MEL-1;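 further: growth inhibition of human SK-MEL-1 cells, read out by a cell viability assay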
Description: SANGER: Inhibition of human SK-MEL-1 cell growth in a cell viability assay.

[16] = tested on: NCI-H1299; conditions: Homo sapiens, NCI-H1299;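 further: growth inhibition of human NCI-H1299 cells, read out by a cell viability assay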
Description: SANGER: Inhibition of human NCI-H1299 cell growth in a cell viability assay.

[17] = tested on: NCI-H1155; conditions: Homo sapiens, NCI-H1155;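 further: cell growth inhibition measured by a viability assay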
Description: SANGER: Inhibition of human NCI-H1155 cell growth in a cell viability assay.

[18] = tested on: UACC-257; conditions: Homo sapiens, UACC-257
Description: SANGER: Inhibition of human UACC-257 cell growth in a cell viability assay.

[19] = tested on: NMC-G1; conditions: Homo sapiens, NMC-G1;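 further: growth inhibition of the NMC-G1 cell line, measured with a cell viability read-out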
Description: SANGER: Inhibition of human NMC-G1 cell growth in a cell viability assay.

[20] = tested on: MN-60; conditions: Homo sapiens, MN-60;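 further: growth inhibition of the MN-60 cell line, determined with a cell viability assay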
Description: SANGER: Inhibition of human MN-60 cell growth in a cell viability assay.

[21] = tested on: NB5; conditions: Homo sapiens, NB5;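 further: growth inhibition of NB5 cells, read out as cell viability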
Description: SANGER: Inhibition of human NB5 cell growth in a cell viability assay.

[22] = tested on: COLO-800; conditions: Homo sapiens, COLO-800;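 further: growth inhibition of COLO-800 cells, read out with a cell viability assay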
Description: SANGER: Inhibition of human COLO-800 cell growth in a cell viability assay.

[23] = tested on: HT; conditions: Homo sapiens, HT
Description: SANGER: Inhibition of human HT cell growth in a cell viability assay.

[24] = tested on: RXF 393; conditions: Homo sapiens, RXF 393;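 further: growth inhibition of human RXF 393 cells, read out with a cell viability assay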
Description: SANGER: Inhibition of human RXF393 cell growth in a cell viability assay.

[25] = tested on: TE-9; conditions: Homo sapiens, TE-9;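 further: cell growth inhibition, measured with a cell viability readout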
Description: SANGER: Inhibition of human TE-9 cell growth in a cell viability assay.

[26] = tested on: TE-10; conditions: Homo sapiens, TE-10;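 further: growth inhibition of TE-10 cells, measured by a cell viability assay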
Description: SANGER: Inhibition of human TE-10 cell growth in a cell viability assay.

[27] = tested on: NH-12; conditions: Homo sapiens, NH-12;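 further: growth inhibition of NH-12 cells, read out with a cell viability assay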
Description: SANGER: Inhibition of human NH-12 cell growth in a cell viability assay.

[28] = tested on: NB12; conditions: Homo sapiens, NB12;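 further: growth inhibition of human NB12 cells, read out by a cell viability assay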
Description: SANGER: Inhibition of human NB12 cell growth in a cell viability assay.

[29] = tested on: no-11; conditions: Homo sapiens;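 further: growth inhibition of human NO-11 cells, read out with a cell viability assay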
Description: SANGER: Inhibition of human no-11 cell growth in a cell viability assay.

[30] = tested on: KLE; conditions: Homo sapiens, KLE;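 further: growth inhibition of human KLE cells, read out with a cell viability assay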
Description: SANGER: Inhibition of human KLE cell growth in a cell viability assay.

[31] = tested on: NCI-H1581; conditions: Homo sapiens, NCI-H1581;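 further: cell growth inhibition read out by a viability assay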
Description: SANGER: Inhibition of human NCI-H1581 cell growth in a cell viability assay.

[32] = tested on: DOHH-2; conditions: Homo sapiens, DOHH-2;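 further: growth inhibition of human DOHH-2 cells, read out with a cell viability assay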
Description: SANGER: Inhibition of human DOHH-2 cell growth in a cell viability assay.

[33] = tested on: SW684; conditions: Homo sapiens, SW684;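 further: growth inhibition of human SW684 cells, measured by a cell viability assay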
Description: SANGER: Inhibition of human SW684 cell growth in a cell viability assay.

[34] = tested on: L-363; conditions: Homo sapiens, L-363
Description: SANGER: Inhibition of human L-363 cell growth in a cell viability assay.

[35] = tested on: LB1047-RCC; conditions: Homo sapiens, LB1047-RCC;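 further: inhibition of cell growth, determined with a cell viability assay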
Description: SANGER: Inhibition of human LB1047-RCC cell growth in a cell viability assay.

[36] = tested on: TE-5; conditions: Homo sapiens, TE-5;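 further: inhibition of cell growth, read out by a cell viability assay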
Description: SANGER: Inhibition of human TE-5 cell growth in a cell viability assay.

[37] = tested on: VA-ES-BJ; conditions: Homo sapiens, VA-ES-BJ;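 further: growth inhibition of the VA-ES-BJ cell line, read out by a cell viability assay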
Description: SANGER: Inhibition of human VA-ES-BJ cell growth in a cell viability assay.

[38] = tested on: SBC-1; conditions: Homo sapiens, SBC-1;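 further: cell viability assay measuring growth inhibition of the SBC-1 cell line, IC50 being the concentration that halves growth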
Description: SANGER: Inhibition of human SBC-1 cell growth in a cell viability assay.

[39] = tested on: NCI-H1092; conditions: Homo sapiens, NCI-H1092;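 further: cell growth inhibition measured with a cell viability assay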
Description: SANGER: Inhibition of human NCI-H1092 cell growth in a cell viability assay.

[40] = tested on: NCI-H69; conditions: Homo sapiens, NCI-H69;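 further: growth inhibition of the cell line, read out with a cell viability assay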
Description: SANGER: Inhibition of human NCI-H69 cell growth in a cell viability assay.

[41] = tested on: HL-60; conditions: Homo sapiens, HL-60;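 further: growth inhibition of human HL-60 cells, read out with a cell viability assay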
Description: SANGER: Inhibition of human HL-60 cell growth in a cell viability assay.

[42] = tested on: NCI-H209; conditions: Homo sapiens, NCI-H209;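 further: growth inhibition of human NCI-H209 cells, measured by a cell viability assay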
Description: SANGER: Inhibition of human NCI-H209 cell growth in a cell viability assay.

[43] = tested on: LB996-RCC; conditions: Homo sapiens, LB996-RCC
Description: SANGER: Inhibition of human LB996-RCC cell growth in a cell viability assay.

[44] = tested on: C8166; conditions: Homo sapiens, C8166;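 further: growth inhibition of human C8166 cells measured by a cell viability assay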
Description: SANGER: Inhibition of human C8166 cell growth in a cell viability assay.

[45] = tested on: COLO-320-HSR; conditions: Homo sapiens, COLO-320-HSR;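 further: growth inhibition of COLO-320-HSR cells, determined with a cell viability assay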
Description: SANGER: Inhibition of human COLO-320-HSR cell growth in a cell viability assay.

[46] = tested on: TK-10; conditions: Homo sapiens, TK-10;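 further: growth inhibition of TK-10 cells, read out in a cell viability assay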
Description: SANGER: Inhibition of human TK10 cell growth in a cell viability assay.

[47] = tested on: GAK; conditions: Homo sapiens, GAK;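 further: cell growth inhibition read out by a cell viability assay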
Description: SANGER: Inhibition of human GAK cell growth in a cell viability assay.

[48] = tested on: HCC2157; conditions: Homo sapiens, HCC2157;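 further: growth inhibition of the cancer cell line, read out as cell viability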
Description: SANGER: Inhibition of human HCC2157 cell growth in a cell viability assay.

[49] = tested on: EC-GI-10; conditions: Homo sapiens, EC-GI-10
Description: SANGER: Inhibition of human EC-GI-10 cell growth in a cell viability assay.

COc1cc2c(Nc3ccc(NC(=O)c4ccccc4)cc3)ncnc2cc1OCCCN1CCOCC1
IC50 [1]: 2640 nM | IC50 [2]: > 4000 nM | IC50 [3]: > 4000 nM | IC50 [4]: > 4000 nM | IC50 [5]: > 4000 nM | IC50 [6]: > 4000 nM | IC50 [7]: 1670 nM | IC50 [8]: > 4000 nM | IC50 [9]: 1760 nM | IC50 [10]: > 4000 nM | IC50 [11]: > 4000 nM | IC50 [12]: > 4000 nM | IC50 [13]: > 4000 nM | IC50 [14]: 1770 nM | IC50 [15]: > 4000 nM | IC50 [16]: > 4000 nM | IC50 [17]: 3040 nM | IC50 [18]: > 4000 nM | IC50 [19]: > 4000 nM | IC50 [20]: > 4000 nM | IC50 [21]: 1840 nM | IC50 [22]: 1700 nM | IC50 [23]: > 4000 nM | IC50 [24]: 3490 nM | IC50 [25]: > 4000 nM | IC50 [26]: > 4000 nM | IC50 [27]: 3280 nM | IC50 [28]: > 4000 nM | IC50 [29]: > 4000 nM | IC50 [30]: > 4000 nM | IC50 [31]: 1680 nM | IC50 [32]: 1400 nM | IC50 [33]: > 4000 nM | IC50 [34]: 1950 nM | IC50 [35]: > 4000 nM | IC50 [36]: > 4000 nM | IC50 [37]: 2790 nM | IC50 [38]: 1040 nM | IC50 [39]: > 4000 nM | IC50 [40]: > 4000 nM | IC50 [41]: 2590 nM | IC50 [42]: 1170 nM | IC50 [43]: > 4000 nM | IC50 [44]: > 4000 nM | IC50 [45]: > 4000 nM | IC50 [46]: > 4000 nM | IC50 [47]: > 4000 nM | IC50 [48]: > 4000 nM

CC(C)c1ccccc1Cc1cc(C(=O)Nc2ccc(S(=O)(=O)c3ccccc3C(C)(C)C)cc2)c(O)c(O)c1O
IC50 [1]: 701 nM | IC50 [2]: 936 nM | IC50 [4]: 3140 nM | IC50 [5]: 2200 nM | IC50 [6]: 788 nM | IC50 [8]: 2490 nM | IC50 [10]: 516 nM | IC50 [11]: 635 nM | IC50 [13]: 272 nM | IC50 [14]: 130 nM | IC50 [16]: 280 nM | IC50 [18]: 552 nM | IC50 [19]: 505 nM | IC50 [49]: 470 nM | IC50 [21]: 423 nM | IC50 [22]: 183 nM | IC50 [24]: 1210 nM | IC50 [25]: 225 nM | IC50 [26]: 1230 nM | IC50 [27]: 172 nM | IC50 [28]: 136 nM | IC50 [29]: 2840 nM | IC50 [30]: 1940 nM | IC50 [31]: 67.6 nM | IC50 [33]: 8830 nM | IC50 [35]: 319 nM | IC50 [36]: 884 nM | IC50 [37]: 39.6 nM | IC50 [43]: 250 nM | IC50 [46]: 462 nM | IC50 [47]: 2030 nM

CC(C)CCN1c2nc(Nc3cc(F)c(O)c(F)c3)ncc2N(C)C(=O)C1C (stereo unspecified)
IC50 [1]: 3670 nM | IC50 [2]: > 5000 nM | IC50 [3]: > 5000 nM | IC50 [4]: > 5000 nM | IC50 [5]: > 5000 nM | IC50 [6]: 4360 nM | IC50 [7]: 1450 nM | IC50 [8]: 2460 nM | IC50 [9]: 1990 nM | IC50 [10]: 1850 nM | IC50 [11]: 3830 nM | IC50 [12]: > 5000 nM | IC50 [13]: 2870 nM | IC50 [14]: > 5000 nM | IC50 [15]: > 5000 nM | IC50 [16]: 2940 nM | IC50 [17]: > 5000 nM | IC50 [18]: > 5000 nM | IC50 [19]: > 5000 nM | IC50 [20]: 2450 nM | IC50 [21]: > 5000 nM | IC50 [22]: 2540 nM | IC50 [23]: > 5000 nM | IC50 [24]: > 5000 nM | IC50 [25]: 2170 nM | IC50 [26]: > 5000 nM | IC50 [27]: 3110 nM | IC50 [28]: > 5000 nM | IC50 [29]: > 5000 nM | IC50 [30]: > 5000 nM | IC50 [31]: > 5000 nM | IC50 [32]: > 5000 nM | IC50 [33]: > 5000 nM | IC50 [34]: > 5000 nM | IC50 [35]: 4100 nM | IC50 [36]: > 5000 nM | IC50 [37]: > 5000 nM | IC50 [38]: 695 nM | IC50 [39]: > 5000 nM | IC50 [40]: 2720 nM | IC50 [41]: 884 nM | IC50 [42]: 768 nM | IC50 [43]: > 5000 nM | IC50 [44]: > 5000 nM | IC50 [45]: > 5000 nM | IC50 [46]: > 5000 nM | IC50 [47]: > 5000 nM | IC50 [48]: > 5000 nM

CC1(C)CNc2cc(NC(=O)c3cccnc3NCc3ccncc3)ccc21 [MOTESANIB]
IC50 [1]: > 2000 nM | IC50 [2]: > 2000 nM | IC50 [3]: > 2000 nM | IC50 [4]: > 2000 nM | IC50 [5]: > 2000 nM | IC50 [6]: > 2000 nM | IC50 [7]: > 2000 nM | IC50 [8]: > 2000 nM | IC50 [9]: > 2000 nM | IC50 [10]: > 2000 nM | IC50 [11]: > 2000 nM | IC50 [12]: > 2000 nM | IC50 [13]: > 2000 nM | IC50 [14]: > 2000 nM | IC50 [15]: > 2000 nM | IC50 [16]: > 2000 nM | IC50 [17]: > 2000 nM | IC50 [18]: > 2000 nM | IC50 [19]: > 2000 nM | IC50 [20]: > 2000 nM | IC50 [21]: > 2000 nM | IC50 [22]: > 2000 nM | IC50 [23]: > 2000 nM | IC50 [24]: > 2000 nM | IC50 [25]: > 2000 nM | IC50 [26]: > 2000 nM | IC50 [27]: > 2000 nM | IC50 [28]: > 2000 nM | IC50 [29]: > 2000 nM | IC50 [30]: > 2000 nM | IC50 [31]: > 2000 nM | IC50 [32]: > 2000 nM | IC50 [33]: > 2000 nM | IC50 [34]: > 2000 nM | IC50 [35]: > 2000 nM | IC50 [36]: > 2000 nM | IC50 [37]: > 2000 nM | IC50 [38]: > 2000 nM | IC50 [39]: > 2000 nM | IC50 [40]: > 2000 nM | IC50 [41]: > 2000 nM | IC50 [42]: > 2000 nM | IC50 [43]: > 2000 nM | IC50 [44]: > 2000 nM | IC50 [45]: > 2000 nM | IC50 [46]: > 2000 nM | IC50 [47]: > 2000 nM | IC50 [48]: > 2000 nM

Cn1cnc2c(F)c(Nc3ccc(Br)cc3Cl)c(C(=O)NOCCO)cc21 [SELUMETINIB]
IC50 [2]: > 4000 nM | IC50 [3]: > 4000 nM | IC50 [5]: 3620 nM | IC50 [6]: > 4000 nM | IC50 [7]: > 4000 nM | IC50 [8]: > 4000 nM | IC50 [9]: 748 nM | IC50 [10]: > 4000 nM | IC50 [11]: 3320 nM | IC50 [12]: > 4000 nM | IC50 [13]: > 4000 nM | IC50 [14]: > 4000 nM | IC50 [15]: > 4000 nM | IC50 [16]: > 4000 nM | IC50 [17]: > 4000 nM | IC50 [18]: 322 nM | IC50 [19]: > 4000 nM | IC50 [20]: > 4000 nM | IC50 [21]: 2570 nM | IC50 [22]: > 4000 nM | IC50 [23]: > 4000 nM | IC50 [24]: > 4000 nM | IC50 [25]: > 4000 nM | IC50 [26]: > 4000 nM | IC50 [27]: > 4000 nM | IC50 [28]: > 4000 nM | IC50 [29]: > 4000 nM | IC50 [30]: > 4000 nM | IC50 [31]: > 4000 nM | IC50 [32]: > 4000 nM | IC50 [33]: > 4000 nM | IC50 [34]: > 4000 nM | IC50 [35]: > 4000 nM | IC50 [36]: > 4000 nM | IC50 [37]: > 4000 nM | IC50 [38]: > 4000 nM | IC50 [39]: > 4000 nM | IC50 [40]: > 4000 nM | IC50 [41]: 24.6 nM | IC50 [42]: > 4000 nM | IC50 [43]: 3950 nM | IC50 [44]: > 4000 nM | IC50 [45]: > 4000 nM | IC50 [46]: > 4000 nM | IC50 [47]: 1900 nM | IC50 [48]: > 4000 nM
